Results taken from patent US20240239775A1, “FXR REGULATOR, PREPARATION METHOD THEREFOR, PHARMACEUTICAL COMPOSITION THEREOF AND USE THEREOF” (QINGDAO RUIJI MEDICAL TECHNOLOGY CO., LTD., priority 2021, published 2024).

Assays:
HepG2 cells = experiment: Testing of TC/TG in HepG2 cells incubated with FFA (oleic acid and palmitate); type: cell-based, human; conditions: 24 h
Experimental: Cell TC/TG was tested using Nanjing Jiancheng TG test kit and TC test kit. HepG2 cells were incubated with 0.5 mmol/L FFA (oleic acid and palmitate mixed at a ratio of 2:1) and a solvent or different concentrations (20 μM, 40 μM, 80 μM) of compounds for 24 h. The culture medium was discarded and the cells were washed once with 0.01 M PBS (pH 7.4). The cells were scraped off with a cell scraper. 2-5 mL of 0.01 M PBS (pH 7.4) was then added. The cell suspension was collected and then centrifuged at 1000×g, 4° C. for 10 min. According to the ratio of 10^6 cells/300-500 μL of homogenization medium, isopropyl alcohol was added for mechanical homogenization, such that the cells were thoroughly disrupted until there was no obvious cell precipitation. The cell solution was centrifuged at 10000×g, 4° C. for 10 min. The supernatant was taken and placed on ice for testing. 2.5 μL of distilled water, standard products or samples were well mixed with […] respectively. After incubation at 37° C. for 10 min, the absorbance value of each well was tested with a microplate reader at 510 nm. Calculation formula for TC/TG concentration: sample concentration (mmol/g protein)=(ODsample−ODblank)/(ODstandard−ODblank)×standard product concentration (mmol/L)/protein concentration (g protein/L).
Preparation of protein standard: a. 1.2 mL of standard protein solution was added to a tube of protein standard (30 mg BSA), and a 25 mg/mL standard protein solution was obtained after the protein standard was thoroughly dissolved. b. An appropriate amount of 25 mg/mL protein standard was diluted to the final concentration of 0.5 mg/mL. Preparation of BCA working solution: according to the number of samples, reagent A for the BCA working solution and reagent B for BCA working solution (v/v: 50:1) were well mixed to prepare an appropriate amount of BCA working solution. Determination of protein concentration: a. 0, 1, 2, 4, 8, 12, 16, and 20 μL of the protein standard were respectively added into the standard wells of the 96-well plate, and the diluted standard solution was then added to make up to 20 μL, which is equivalent to obtaining standard concentrations of 0, 0.025, 0.05, 0.1, 0.2, 0.3, 0.4, and 0.5 mg/mL, respectively. b. An appropriate volume of sample was added to the sample wells of the 96-well plate. If the sample is less than 20 μL, the diluted standard solution should be added to make up to 20 μL. c. […] was added to each well and the well plate was set still at 37° C. for 20-30 min. d. The absorbance at A562 nm was determined with a microplate reader. e. The protein concentrations of the samples were calculated according to the standard curves and the sample volumes used.

[1] = Cell proliferation inhibition (cytotoxicity) by MTT assay, HEK293A; type: cell-based; conditions: human, HEK293A cells, 48 hours after administration, average of three independent repeated experiments
Experimental: The human embryonic kidney cell line HEK293A was subcultured in a medium containing penicillin (final concentration: 100 U/mL), streptomycin (final concentration: 100 μg/mL) and 10% FBS, in a humidified atmosphere of 95% air and 5% carbon dioxide at a constant temperature of 37° C. When the cells were 90% confluent, the old culture medium was discarded and the cells were washed twice with 2 mL of PBS. After the PBS was discarded, 2 mL of 0.25% trypsin-0.25% EDTA mixed digestion solution was added. When it was observed under a microscope that the cells became round, 2 mL of complete culture medium was added quickly to stop the digestion. The cell solution was pipetted gently to collect cells. The cells were centrifuged at 800 rpm, 4° C. for 5 min, the supernatant was discarded, the cells were resuspended in complete culture medium and cultured in bottles, and the medium was changed every other day.
(§1) The cell proliferation inhibition ability of compounds was tested by MTT assay. HepG2 and HEK293 cells were inoculated in a 96-well plate at a density of 30%. After incubation for 18 h to allow the cells to adhere, the original culture medium was removed, a given concentration of the compound to be tested was added to each well, and an equal amount of DMSO was added to the control group. Three replicate wells were set up for each compound. 48 hours after administration, cell viability was tested by MTT assay. The blank group was the wells where no cells were added, and then its OD value was read at 490 nm with a microplate reader. Calculation formula for cell viability: cell viability (%)=(ODto be tested−ODblank)/(ODcontrol−ODblank)×100.

FXR = biological target: T1, FXR (Homo sapiens, UniProt Q96RI1); experiment: FXR antagonist screening by TR-FRET (LanthaScreen TR-FRET FXR co-activation assay kit); type: biochemical; conditions: Table 1.1, FXR antagonistic activity; TR-FRET with CDCA; geometric means of at least two independent runs
T1 construct: 5 μL of 20 nM FXR-LBD Complete Coregulator buffer G; purchased ThermoFisher PV4833
T1 sequence (Q96RI1 262-486 limits assumed): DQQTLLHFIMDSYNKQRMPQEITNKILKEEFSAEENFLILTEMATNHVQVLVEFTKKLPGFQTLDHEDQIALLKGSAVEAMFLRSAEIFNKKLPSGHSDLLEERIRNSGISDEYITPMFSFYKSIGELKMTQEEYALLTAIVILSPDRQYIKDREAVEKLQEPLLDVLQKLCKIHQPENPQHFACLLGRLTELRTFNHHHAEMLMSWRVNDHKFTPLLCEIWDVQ
How it was run: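 FXR-LBD (20 nM working solution) mixed with compound, CDCA (200 μM working solution) as agonist, Fluorescein-SRC2-2 and Tb-anti-GST antibody in Coregulator buffer G; 10 h at room temperature. Coactivator recruitment read by TR-FRET, triplicate wells.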

[2] = Cell proliferation inhibition (cytotoxicity) by MTT assay, HepG2; type: cell-based; conditions: human, HepG2 cells, 48 hours after administration, average of three independent repeated experiments
Experimental: The human liver cancer cell line HepG2 was subcultured in a DMEM medium containing penicillin (final concentration: 100 U/mL), streptomycin (final concentration: 100 μg/mL) and 10% FBS under the same conditions as those in the subculture of HEK293A.
as §1

SMILES: Cc1c(C(=O)O)oc2ccc(S(=O)(=O)N(CCc3ccccc3)c3ccccc3N3CCN(C(=O)c4ccccc4)CC3)cc12 [Example F27-S96]
- melting point: 128 to 129 °C
- reduction of the increase in TG level of HepG2 cell induced by oleic acid and palmitate (HepG2 cells; 20 μM compound, 0.5 mmol/L FFA, FIG. 1A): significantly reduce
- reduction of the increase in TC level of HepG2 cell induced by oleic acid and palmitate (HepG2 cells; 20 μM compound, 0.5 mmol/L FFA, FIG. 1B): significantly reduce
- inhibitory effect on TC, dose dependence (HepG2 cells; HepG2, 20 μM, 40 μM, 80 μM): dose-dependent to some extent
- inhibitory effect on TG, dose dependence (HepG2 cells; HepG2, 20 μM, 40 μM, 80 μM): dose-dependent to some extent
- CC50 at 48 h [1]: > 160 µM
- IC50 (FXR): 0.1 to 10 µM
- CC50 at 48 h [2]: > 160 µM
